According to patent US20060069132A1, “Azolecarboxamide herbicides” (priority 2004, published 2006):

What was measured:
barnyardgrass [1] = test: Test B pre-/postemergence herbicide test; type: in vivo, Echinochloa crus-galli; conditions: for Barnyardgrass plant response rating: scale 0 (no effect) to 100 (complete control)
How it was run: (§1)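 Plants compared with untreated controls 13–15 days post-treatment and given a visual 0–100 injury score. Applications: preemergence to seeds; postemergence at 1- to 4-leaf (2–18 cm); paddy species flooded, 2-leaf stage. Vehicle non-phytotoxic, surfactant included.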

Surinam grass = test: Test B pre-/postemergence herbicide test; type: in vivo, Urochloa decumbens; conditions: for Surinam Grass plant response rating: scale 0 (no effect) to 100 (complete control)
How it was run: (§2)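 Test chemicals in a non-phytotoxic solvent mixture with surfactant were applied preemergence to seeded species and postemergence to plants 2-18 cm tall (1- to 4-leaf stage); rice and barnyardgrass were also tested in a flooded paddy at the 2-leaf stage. Visual rating versus controls after 13-15 days in greenhouse, scale 0 (no effect) to 100 (complete control).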

cocklebur = test: Test B pre-/postemergence herbicide test; type: in vivo, Xanthium strumarium; conditions: for Cocklebur plant response rating: scale 0 (no effect) to 100 (complete control)
How it was run: as §1

corn = test: Test B pre-/postemergence herbicide test; type: in vivo, Zea mays; conditions: for Corn plant response rating: scale 0 (no effect) to 100 (complete control)
How it was run: as §2

large crabgrass = test: Test B pre-/postemergence herbicide test; type: in vivo, Digitaria sanguinalis; conditions: for Crabgrass, Large plant response rating: scale 0 (no effect) to 100 (complete control)
How it was run: as §2

giant foxtail = test: Test B pre-/postemergence herbicide test; type: in vivo, Setaria faberi; conditions: for Foxtail, Giant plant response rating: scale 0 (no effect) to 100 (complete control)
How it was run: as §2

lambsquarters = test: Test B pre-/postemergence herbicide test; type: in vivo, Chenopodium album; conditions: for Lambsquarters plant response rating: scale 0 (no effect) to 100 (complete control)
How it was run: as §2

morningglory = test: Test B pre-/postemergence herbicide test; type: in vivo, Ipomoea coccinea; conditions: for Morningglory plant response rating: scale 0 (no effect) to 100 (complete control)
How it was run: as §1

pigweed = test: Test B pre-/postemergence herbicide test; type: in vivo, Amaranthus retroflexus; conditions: for Pigweed plant response rating: scale 0 (no effect) to 100 (complete control)
How it was run: as §2

velvetleaf = test: Test B pre-/postemergence herbicide test; type: in vivo, Abutilon theophrasti; conditions: for Velvetleaf plant response rating: scale 0 (no effect) to 100 (complete control)
How it was run: as §2

blackgrass = test: Test B postemergence herbicide test; type: in vivo, Alopecurus myosuroides; conditions: scale 0 (no effect) to 100 (complete control)
How it was run: (§3)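 Formulated test chemicals went onto postemergence plants measuring 2 to 18 cm, at one to four leaves. For the paddy assay, species had reached two leaves. Scoring took place 13–15 days later by eye, relative to untreated plants, using 0 for no effect up to 100 for full control.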

wheat = test: Test B postemergence herbicide test; type: in vivo, Triticum aestivum; set-up: key to Wheat plant response rating: 0 = no effect, 100 = complete control
How it was run: as §3

wild oat = test: Test B postemergence herbicide test; type: in vivo, Avena fatua; conditions: scale 0 (no effect) to 100 (complete control)
How it was run: as §3

rice [2] = test: Test B flooded paddy test; type: in vivo, Oryza sativa; conditions: 1000 g ai/ha, scale 0 to 100 (0 no effect, 100 complete control)
How it was run: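 Paddy species grown to the 2-leaf stage under flooding; blackgrass sprayed postemergence at 2–18 cm (1- to 4-leaf stage). Plants kept in a greenhouse for 13 to 15 days, then visually rated against controls on 0 (no effect) to 100 (complete control).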

[3] = system: small flower umbrella sedge; test: Test B flooded paddy test; type: in vivo, Cyperus difformis; conditions: 1000 g ai/ha, scale 0 to 100 (0 no effect, 100 complete control)
How it was run: as §3

ducksalad [4] = test: Test B flooded paddy test; type: in vivo, Heteranthera limosa; conditions: 1000 g ai/ha, scale 0 to 100 (0 no effect, 100 complete control)
How it was run: as §3

barnyardgrass [5] = test: Test B flooded paddy test; type: in vivo, Echinochloa crus-galli; conditions: 1000 g ai/ha, scale 0 to 100 (0 no effect, 100 complete control)
How it was run: as §3

rice [6] = test: Test C flooded paddy test; type: in vivo, Oryza sativa
How it was run: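 Injury scored visually against controls on a 0 (no effect) to 100 (complete control) scale, 12 to 14 days after treatment in greenhouse. Flooded paddy plants treated at 2-leaf stage; postemergence plants at 1- to 4-leaf stage, 2 to 18 cm tall.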

[7] = system: smallflower umbrella sedge; test: Test C flooded paddy test; type: in vivo, Cyperus difformis
ducksalad [8] = test: Test C flooded paddy test; type: in vivo, Heteranthera limosa
barnyardgrass [9] = test: Test C flooded paddy test; type: in vivo, Echinochloa crus-galli
How it was run: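 Greenhouse test with a 12–14 day hold after application and visual comparison with controls. Emerged plants were 1- to 4-leaf stage (2–18 cm) when sprayed postemergence, and the paddy barnyardgrass was at 2 leaves under flooded conditions. 100 = complete control.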

[10] = 125 g ai/ha, 0 is no effect, 100 is complete control, preemergence
[11] = 125 g ai/ha, visual rating, postemergence
[12] = 125 g ai/ha, scale 0 to 100 (0 no effect, 100 complete control)
[13] = 250 g ai/ha, scale of 0 to 100, 0 is no effect, 100 is complete control
[14] = 500 g ai/ha, visual rating after 12 to 14 days, scale 0 to 100 (0 no effect, 100 complete control)

C#CCNC(=O)c1cccc(NC(=O)c2nn(C(C)(C)C)nc2C)c1 [Compound 394]
60: Lambsquarters plant response rating (lambsquarters; Postemergence, 500 g ai/ha) | Pigweed plant response rating (pigweed; Postemergence, 500 g ai/ha) | Rice plant response rating (rice [2]) | Plant response rating, Rice (rice [6]; [14]) | Sedge, Umbrella plant response rating [7, 13]
20: Surinam Grass plant response rating (Surinam grass; Postemergence, 500 g ai/ha) | Plant response rating (0 to 100 scale), Cocklebur (cocklebur; [10]) | Cocklebur plant response rating (cocklebur; Postemergence, 500 g ai/ha) | Crabgrass, Large plant response rating (large crabgrass; Postemergence, 500 g ai/ha) | Foxtail, Giant plant response rating (giant foxtail; [11]) | Morningglory plant response rating (morningglory; [11]) | Morningglory plant response rating (morningglory; Postemergence, 500 g ai/ha) | Blackgrass plant response rating (blackgrass; Postemergence, 500 g ai/ha) | Wheat plant response rating (wheat; 500 g ai/ha, scale 0 to 100, 0 no effect, 100 complete control, preemergence) | Plant response rating, Barnyardgrass (barnyardgrass [9]; [14])
10: Barnyardgrass plant response rating (barnyardgrass [1]; Postemergence, 500 g ai/ha) | Plant response rating (0 to 100 scale), Surinam Grass (Surinam grass; [10]) | Surinam Grass plant response rating (Surinam grass; [11]) | Cocklebur plant response rating (cocklebur; [11]) | Corn plant response rating (corn; Postemergence, 500 g ai/ha) | Crabgrass, Large plant response rating (large crabgrass; [11]) | Plant response rating (0 to 100 scale), Foxtail, Giant (giant foxtail; [10]) | Plant response rating (0 to 100 scale), Lambsquarters (lambsquarters; [10]) | Plant response rating (0 to 100 scale), Pigweed (pigweed; [10]) | Velvetleaf plant response rating (velvetleaf; [11]) | Ducksalad plant response rating (ducksalad [8]; [13])
70: Barnyardgrass plant response rating (barnyardgrass [5]) | Plant response rating, Sedge, Umbrella [7, 14]
45: Rice plant response rating (rice [6]; [13]) | Plant response rating, Ducksalad (ducksalad [8]; [14])
30: Plant response rating (0 to 100 scale), Barnyardgrass (barnyardgrass [1]; [10]) | Foxtail, Giant plant response rating (giant foxtail; Postemergence, 500 g ai/ha) | Lambsquarters plant response rating (lambsquarters; [11]) | Pigweed plant response rating (pigweed; [11]) | Velvetleaf plant response rating (velvetleaf; Postemergence, 500 g ai/ha)
40: Plant response rating (0 to 100 scale), Crabgrass, Large (large crabgrass; [10])
90: Sedge, Umbrella plant response rating [3]
35: Sedge, Umbrella plant response rating [7, 12]
80: Ducksalad plant response rating (ducksalad [4])
0: Barnyardgrass plant response rating (barnyardgrass [1]; [11]) | Plant response rating (0 to 100 scale), Corn (corn; [10]) | Corn plant response rating (corn; [11]) | Plant response rating (0 to 100 scale), Morningglory (morningglory; [10]) | Plant response rating (0 to 100 scale), Velvetleaf (velvetleaf; [10]) | Blackgrass plant response rating (blackgrass; [11]) | Wheat plant response rating (wheat; 125 g ai/ha, visual rating, scale 0 (no effect) to 100 (complete control), postemergence) | Wheat plant response rating (wheat; Postemergence, 500 g ai/ha, scale 0 (no effect) to 100 (complete control)) | Oat, Wild plant response rating (wild oat; [11]) | Oat, Wild plant response rating (wild oat; Postemergence, 500 g ai/ha) | Rice plant response rating (rice [6]; 62 g ai/ha, scale 0 to 100) | Rice plant response rating (rice [6]; [12]) | Sedge, Umbrella plant response rating ([7]; 62 g ai/ha, scale 0 to 100) | Ducksalad plant response rating (ducksalad [8]; 62 g ai/ha, scale 0 to 100) | Ducksalad plant response rating (ducksalad [8]; [12]) | Barnyardgrass plant response rating (barnyardgrass [9]; 62 g ai/ha, scale 0 to 100 (0 no effect, 100 complete control)) | Barnyardgrass plant response rating (barnyardgrass [9]; [12]) | Barnyardgrass plant response rating (barnyardgrass [9]; [13])
